In US20240391948A1, “NOVEL COMPOUND THAT INHIBITS TNF-ALPHA GENERATION AND INFLAMMASOME ACTIVITY AND PREPARATION METHOD THEREFOR” (SHAPERON INC., priority 2021, published 2024) one finds inhibition and IC50 data, which are given here for 24 compounds.

A word on the inhibition: it is the change of the read-out against control, counted positive when it falls. By IC50 is commonly meant the concentration at which inhibition is half-maximal.

Structures are written as SMILES.

Format in all cases: cell-based
Test [1] has as its system J774A.1 (Mouse BALB/c monocyte macrophage cell line) cells. The experiment in a line: LPS-induced TNF-α secretion inhibition in J774A.1 cells. The following applies: J774.A1, 1 μM compound, graded compared to taurodeoxycholic acid (positive control), read-out: TNF-α production inhibition grade. The method, boiled down:
(§1)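 Mouse J774A.1 macrophages treated with 1 μM compound; TNF-α secretion measured after LPS stimulation and IL-1β secretion after LPS+ATP stimulation. Suppression graded against taurodeoxycholic acid: A over 100%, B 50–100%, C 20–50%, D under 20%.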

For test [2] the test system is unchanged. The experiment in a line: LPS+ATP-induced IL-1β secretion inhibition in J774A.1 cells. The following applies: J774.A1, 1 μM compound, graded compared to taurodeoxycholic acid (positive control), read-out: IL-1β production inhibition grade. The method, boiled down:
as §1

Test [3] deals with U937 cells (human monocytic cell line). The experiment in a line: Pam2CSK4-induced TNF-α secretion inhibition in PMA-differentiated U937 cells. The note with it: U-937, U937 cells differentiated with PMA, read-out: TNF-α production inhibition grade (IC50). The method, boiled down: (§2)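 U937 cells were PMA-differentiated into macrophages and treated with compound before inflammatory stimulus. TNF-α secretion was induced with Pam2CSK4 and IL-1β secretion with BzATP. IC50 (μM) values are graded A-D, with separate cut-offs per cytokine.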

Test [4] has the same test system. The experiment in a line: BzATP-induced IL-1β secretion inhibition in PMA-differentiated U937 cells. The following applies: U-937, U937 cells differentiated with PMA, read-out: IL-1β production inhibition grade (IC50). The method, boiled down:
as §2

With `CC[C@H]1[C@@H](O)[C@@H]2[C@H](CC[C@]3(C)[C@@H]([C@H](C)CCC(=O)N(CCO)CCS(=O)(=O)O)CC[C@@H]23)[C@@]2(C)CC[C@@H](O)C[C@@H]12` [NC40006], the values for the inhibition at 1 µM in test [1] and in test [2] were 20 to 50% and 50 to 100%, respectively. Further, the IC50 in test [3] was 1000 to 2000 nM; in test [4], at least 200 nM.
Taken in the same sequence, the figures for `CC[C@H]1[C@@H](O)[C@@H]2[C@H](CC[C@]3(C)[C@@H]([C@H](C)CCC(=O)N(CCS(=O)(=O)O)C(C)C)CC[C@@H]23)[C@@]2(C)CC[C@@H](O)C[C@@H]12` [NC40007] were below 20%, 50 to 100%, 1000 to 2000 nM and at least 200 nM.
Regarding `CC[C@H]1[C@@H](O)[C@@H]2[C@H](CC[C@]3(C)[C@@H]([C@H](C)CCC(=O)N(CCS(=O)(=O)O)C4CCOCC4)CC[C@@H]23)[C@@]2(C)CC[C@@H](O)C[C@@H]12` [NC40008], the inhibition at 1 µM in test [1] and in test [2] was above 100% in each case. The IC50 in test [3] is below 500 nM; in test [4] it was below 50 nM.
For the compound `CC[C@H]1[C@@H](O)[C@@H]2[C@H](CC[C@]3(C)[C@@H]([C@H](C)CCC(=O)N4CCC[C@H](S(=O)(=O)O)C4)CC[C@@H]23)[C@@]2(C)CC[C@@H](O)C[C@@H]12` [NC40009], the inhibition at 1 µM in test [1] and in test [2] was below 20% throughout. Further, the IC50 in test [3] fell in the range of 1000 to 2000 nM; in test [4], 100 to 200 nM.
Turning to `CC[C@H]1[C@@H](O)[C@@H]2[C@H](CC[C@]3(C)[C@@H]([C@H](C)CCC(=O)N4CCC[C@@H](S(=O)(=O)O)C4)CC[C@@H]23)[C@@]2(C)CC[C@@H](O)C[C@@H]12` [NC40010], the inhibition at 1 µM in test [1] was 50 to 100%; in test [2] it was below 20%. For the same compound, the IC50 was 500 to 1000 nM in test [3] and at least 200 nM in test [4].
Taken in the same sequence, the figures for `CC[C@H]1[C@@H](O)[C@@H]2[C@H](CC[C@]3(C)[C@@H]([C@H](C)CCC(=O)N4CCC(S(=O)(=O)O)CC4)CC[C@@H]23)[C@@]2(C)CC[C@@H](O)C[C@@H]12` [NC40011] were below 20%, 20 to 50%, 500 to 1000 nM and at least 200 nM.
Consider `CC[C@H]1[C@@H](O)[C@@H]2[C@H](CC[C@]3(C)[C@@H]([C@H](C)CCC(=O)N4CC(S(=O)(=O)O)C4)CC[C@@H]23)[C@@]2(C)CC[C@@H](O)C[C@@H]12` [NC40012], for which the values for the inhibition at 1 µM in test [1] and in test [2] were below 20% and 50 to 100%, respectively. Also, the figures for the IC50 in test [3] and in test [4] were 500 to 1000 nM and at least 200 nM, respectively.
Taken in the same sequence, the figures for `CC[C@H]1[C@@H](O)[C@@H]2[C@H](CC[C@]3(C)[C@@H]([C@H](C)CCC(=O)NC(C)(C)CS(=O)(=O)O)CC[C@@H]23)[C@@]2(C)CC[C@@H](O)C[C@@H]12` [NC40013] were below 20%, above 100%, 1000 to 2000 nM and below 50 nM.
For `CC[C@H]1[C@@H](O)[C@@H]2[C@H](CC[C@]3(C)[C@@H]([C@H](C)CCC(=O)N[C@@H](Cc4ccccc4)CS(=O)(=O)O)CC[C@@H]23)[C@@]2(C)CC[C@@H](O)C[C@@H]12` [NC40014], the inhibition at 1 µM in test [1] is below 20%; in test [2], above 100%. Besides, the IC50 in test [3] is 500 to 1000 nM; in test [4], below 50 nM.
The corresponding values for `CC[C@H]1[C@@H](O)[C@@H]2[C@H](CC[C@]3(C)[C@@H]([C@H](C)CCC(=O)N[C@H](Cc4ccccc4)CS(=O)(=O)O)CC[C@@H]23)[C@@]2(C)CC[C@@H](O)C[C@@H]12` [NC40015] are below 20%, above 100%, 500 to 1000 nM and 50 to 100 nM.
Consider `CC[C@H]1[C@@H](O)[C@@H]2[C@H](CC[C@]3(C)[C@@H]([C@H](C)CCC(=O)N[C@@H](CS(=O)(=O)O)C(C)C)CC[C@@H]23)[C@@]2(C)CC[C@@H](O)C[C@@H]12` [NC40017], for which the inhibition at 1 µM in test [1] was below 20%; in test [2] it was 20 to 50%. The IC50 in test [3] is 500 to 1000 nM; in test [4], at least 200 nM.
The corresponding values for `CC[C@H]1[C@@H](O)[C@@H]2[C@H](CC[C@]3(C)[C@@H]([C@H](C)CCC(=O)N[C@H](CS(=O)(=O)O)c4ccccc4)CC[C@@H]23)[C@@]2(C)CC[C@@H](O)C[C@@H]12` [NC40018] are below 20%, above 100%, below 500 nM and below 50 nM.
Consider `CC[C@H]1[C@@H](O)[C@@H]2[C@H](CC[C@]3(C)[C@@H]([C@H](C)CCC(=O)N[C@@H](CS(=O)(=O)O)c4ccccc4)CC[C@@H]23)[C@@]2(C)CC[C@@H](O)C[C@@H]12` [NC40019], for which the inhibition at 1 µM is below 20% in test [1] and above 100% in test [2]. Moreover, the 50% inhibitory concentration (IC50) in test [3] was 1000 to 2000 nM; in test [4] it was 100 to 200 nM.
With `CC[C@H]1[C@@H](O)[C@@H]2[C@H](CC[C@]3(C)[C@@H]([C@H](C)CCC(=O)N4CCC[C@@H]4CS(=O)(=O)O)CC[C@@H]23)[C@@]2(C)CC[C@@H](O)C[C@@H]12` [NC40020], the inhibition at 1 µM is below 20% in test [1] and above 100% in test [2]. The half-inhibitory concentration (IC50) in test [3] lay within 1000 to 2000 nM; in test [4], 100 to 200 nM.
The corresponding values for `CC[C@H]1[C@@H](O)[C@@H]2[C@H](CC[C@]3(C)[C@@H]([C@H](C)CCC(=O)N4CCC[C@H]4CS(=O)(=O)O)CC[C@@H]23)[C@@]2(C)CC[C@@H](O)C[C@@H]12` [NC40021] are below 20%, 50 to 100%, 500 to 1000 nM and at least 200 nM.
Taken in the same sequence, the figures for `CC[C@H]1[C@@H](O)[C@@H]2[C@H](CC[C@]3(C)[C@@H]([C@H](C)CCC(=O)NC[C@H](C)S(=O)(=O)O)CC[C@@H]23)[C@@]2(C)CC[C@@H](O)C[C@@H]12` [NC40022] were 20 to 50%, 20 to 50%, 500 to 1000 nM and at least 200 nM.
With `CC[C@H]1[C@@H](O)[C@@H]2[C@H](CC[C@]3(C)[C@@H]([C@H](C)CCC(=O)NC[C@@H](C)S(=O)(=O)O)CC[C@@H]23)[C@@]2(C)CC[C@@H](O)C[C@@H]12` [NC40023], the inhibition at 1 µM in test [1] and in test [2] was below 20% in each case. For the same compound, the half-inhibitory concentration (IC50) was 500 to 1000 nM in test [3] and at least 200 nM in test [4].
For `CC[C@H]1[C@@H](O)[C@@H]2[C@H](CC[C@]3(C)[C@@H]([C@H](C)CCC(=O)N[C@@H](CO)CS(=O)(=O)O)CC[C@@H]23)[C@@]2(C)CC[C@@H](O)C[C@@H]12` [NC40024], the inhibition at 1 µM in test [1] and in test [2] was below 20% throughout. Moreover, the IC50 in test [3] is 500 to 1000 nM; in test [4] it was at least 200 nM.
On to `CC[C@H]1[C@@H](O)[C@@H]2[C@H](CC[C@]3(C)[C@@H]([C@H](C)CCC(=O)N[C@H](CO)CS(=O)(=O)O)CC[C@@H]23)[C@@]2(C)CC[C@@H](O)C[C@@H]12` [NC40025], for which the inhibition at 1 µM in test [1] and in test [2] was 20 to 50% throughout. The results for the 50% inhibitory concentration (IC50) in test [3] and in test [4] were 500 to 1000 nM and 50 to 100 nM, respectively.
For the compound `CC[C@H]1[C@@H](O)[C@@H]2[C@H](CC[C@]3(C)[C@@H]([C@H](C)CCC(=O)N[C@H]4CCCC[C@H]4S(=O)(=O)O)CC[C@@H]23)[C@@]2(C)CC[C@@H](O)C[C@@H]12` [NC40027], the inhibition at 1 µM in test [1] is below 20%; in test [2], 50 to 100%. Further, the values for the IC50 in test [3] and in test [4] were at least 2000 nM and at least 200 nM, respectively.
Taken in the same sequence, the figures for `CC[C@H]1[C@@H](O)[C@@H]2[C@H](CC[C@]3(C)[C@@H]([C@H](C)CCC(=O)N[C@@H](C)CS(=O)(=O)O)CC[C@@H]23)[C@@]2(C)CC[C@@H](O)C[C@@H]12` [NC40028] were below 20%, 50 to 100%, 1000 to 2000 nM and 100 to 200 nM.
Take `CC[C@H]1[C@@H](O)[C@@H]2[C@H](CC[C@]3(C)[C@@H]([C@H](C)CCC(=O)N[C@H](C)CS(=O)(=O)O)CC[C@@H]23)[C@@]2(C)CC[C@@H](O)C[C@@H]12` [NC40029]: the inhibition at 1 µM in test [1] and in test [2] was below 20% throughout. The IC50 is 1000 to 2000 nM in test [3] and at least 200 nM in test [4].
Consider `CC[C@H]1[C@@H](O)[C@@H]2[C@H](CC[C@]3(C)[C@@H]([C@H](C)CCC(=O)N[C@@H](CC(C)C)CS(=O)(=O)O)CC[C@@H]23)[C@@]2(C)CC[C@@H](O)C[C@@H]12` [NC40030], for which the inhibition at 1 µM in test [1] and in test [2] was below 20% in each case. Further, the results for the half-maximal inhibitory concentration (IC50) in test [3] and in test [4] were 1000 to 2000 nM and at least 200 nM, respectively.
For the compound `CC[C@H]1[C@@H](O)[C@@H]2[C@H](CC[C@]3(C)[C@@H]([C@H](C)CCC(=O)N[C@H](CC(C)C)CS(=O)(=O)O)CC[C@@H]23)[C@@]2(C)CC[C@@H](O)C[C@@H]12` [NC40031], the inhibition at 1 µM in test [1] and in test [2] was below 20% throughout. Further, the figures for the IC50 in test [3] and in test [4] were 1000 to 2000 nM and at least 200 nM, respectively.
